In patent publication US20240002332A1, “Small Molecule Inhibitors of SARS-CoV-2 Infections” (priority 2020, published 2024):

Tests used:
[1] = Kinetic solubility (Tier I ADME); settings: kinetic from dmso stock
[2] = Tolerability study in mice, 7 days QD, PK on the 7th day; settings: 25, 50 and 100 mg/kg PO QD 7 days, C57BL/6J mice
[3] = Pharmacokinetics in mice IV 3 and PO 10 mg/kg; plasma, lung and liver; settings: for Kp: AUC ratio (tissue/plasma)
[4] = tested on: SARS CoV-2 (USA_WA1/2020); assay: Cytopathic effect (CPE) assay; assay type: cell-based; settings: Severe acute respiratory syndrome coronavirus 2, Vero C1008, 72 h
[5] = Rat liver microsomal (RLM) stability; settings: rat, microsomes
[6] = Parallel artificial membrane permeability assay (PAMPA); settings: PAMPA, pH 5
[7] = mice, Compound P3 dosed PO 10 mg/kg, Liver
[8] = mice, Compound P3 dosed PO 10 mg/kg, Lung
[9] = mice, Compound P3 dosed PO 10 mg/kg, Plasma
[10] = mouse Plasma, Compound P3 dosed IV 3 mg/kg
[11] = mouse Plasma, Compound P3 dosed PO 10 mg/kg

Question: What does the source list for O=C(Nc1ccc([N+](=O)[O-])cc1Cl)c1cc(Cl)ccc1OC(=O)N1CCNCC1 [Compound P3, 4-chloro-2-((2-chloro-4-nitrophenyl)carbamoyl)phenyl piperazine-1-carboxylate]?
Answer: in vivo conversion to niclosamide (Compound P3 oral, mice): effectively converted in vivo to the active niclosamide; plasma exposure of niclosamide vs that reported for oral niclosamide (oral Compound P3, mice): much improved plasma exposures of niclosamide; solubility [1]: > 43 µg/mL; body weight [2]: no dose dependent weight loss; tolerability [2]: tolerable for the study period, with no gross findings; clearance ([3]; mice): moderate; AUC0-INF/D [3, 7]: 65.7 kg·ng·h/mL/mg; AUC_% Extrap [3, 7]: 0.9%; Cmax/D [3, 7]: 24 kg·ng/mL/mg; AUC0-INF/D [3, 8]: 24400 kg·ng·h/mL/mg; AUC_% Extrap [3, 8]: 0.2%; Cmax/D [3, 8]: 4420 kg·ng/mL/mg; Tmax [3, 8]: 1.5 h; t1/2 [3, 8]: 2.8 h; AUC0-INF [3, 9]: 3530 ng·h/mL; AUC0-INF/D [3, 9]: 353 kg·ng·h/mL/mg; AUC_% Extrap [3, 9]: 0.5%; Cmax [3, 9]: 606 ng/mL; Cmax/D [3, 9]: 60.6 kg·ng/mL/mg; AUCINF/D [3, 10]: 426 kg·ng·h/mL/mg; AUCLast/D [3, 10]: 425 kg·ng·h/mL/mg; AUC_%Extrap_obs [3, 10]: 0.06%; Clast [3, 10]: 0.163 ng/mL; Cmax/D [3, 10]: 154 kg·ng/mL/mg; Tlast [3, 10]: 48 h; AUCINF/D [3, 11]: 353 kg·ng·h/mL/mg; AUCINF_obs [3, 11]: 3530 ng·h/mL; AUCLast/D [3, 11]: 351 kg·ng·h/mL/mg; AUC_%Extrap_obs [3, 11]: 0.5%; Clast [3, 11]: 5.23 ng/mL; Cmax/D [3, 11]: 60.6 kg·ng/mL/mg; F [3, 11]: 83%; Tlast [3, 11]: 30 h; bioavailability ([3]; mouse, in vivo, 10 mg/kg): 83%; C0 ([3]; mouse, in vivo, iv, 3 mg/kg): 536 ng/mL; Tmax ([3]; mouse, in vivo, iv, 3 mg/kg): 0.083 h; Vd ([3]; mouse, in vivo, iv, 3 mg/kg): 8.9 L/kg; clearance ([3]; mouse, in vivo, iv, 3 mg/kg): 39 mL/min/kg; AUC(0-inf) ([3]; mouse, in vivo, iv, 3 mg/kg, AUCINF_obs, mouse Plasma, Compound P3 dosed IV 3 mg/kg): 1280 ng·h/mL; AUC(0-t) ([3]; mouse, in vivo, iv, 3 mg/kg, AUClast, mouse Plasma, Compound P3 dosed IV 3 mg/kg): 1280 ng·h/mL; Cmax ([3]; mouse, in vivo, iv, 3 mg/kg, Cmax, mouse Plasma, Compound P3 dosed IV 3 mg/kg): 461 ng/mL; half-life ([3]; mouse, in vivo, iv, 3 mg/kg, t½, mouse Plasma, Compound P3 dosed IV 3 mg/kg): 3.3 h; AUC(0-inf) ([3]; mouse, in vivo, po, 10 mg/kg, AUC0-INF, mice, Compound P3 dosed PO 10 mg/kg, Liver): 657 ng·h/mL; AUC(0-inf) ([3]; mouse, in vivo, po, 10 mg/kg, AUC0-INF, mice, Compound P3 dosed PO 10 mg/kg, Lung): 244000 ng·h/mL; AUC(0-t) ([3]; mouse, in vivo, po, 10 mg/kg, AUC0-last, mice, Compound P3 dosed PO 10 mg/kg, Liver): 651 ng·h/mL; AUC(0-t) ([3]; mouse, in vivo, po, 10 mg/kg, AUC0-last, mice, Compound P3 dosed PO 10 mg/kg, Lung): 244000 ng·h/mL; AUC(0-t) ([3]; mouse, in vivo, po, 10 mg/kg, AUC0-last, mice, Compound P3 dosed PO 10 mg/kg, Plasma): 3510 ng·h/mL; Kp ([3]; mouse, in vivo, po, 10 mg/kg, mice, Compound P3 dosed PO 10 mg/kg, Liver): 0.19; Kp ([3]; mouse, in vivo, po, 10 mg/kg, mice, Compound P3 dosed PO 10 mg/kg, Lung): 69; AUC(0-t) ([3]; mouse, in vivo, po, 10 mg/kg, AUClast, mouse Plasma, Compound P3 dosed PO 10 mg/kg): 3510 ng·h/mL; Cmax ([3]; mouse, in vivo, po, 10 mg/kg, Cmax, mice, Compound P3 dosed PO 10 mg/kg, Liver): 240 ng/mL; Cmax ([3]; mouse, in vivo, po, 10 mg/kg, Cmax, mice, Compound P3 dosed PO 10 mg/kg, Lung): 44200 ng/mL; half-life ([3]; mouse, in vivo, po, 10 mg/kg, t1/2, mice, Compound P3 dosed PO 10 mg/kg, Liver): 4 h; half-life ([3]; mouse, in vivo, po, 10 mg/kg, t1/2, mice, Compound P3 dosed PO 10 mg/kg, Plasma): 2.2 h; half-life ([3]; mouse, in vivo, po, 10 mg/kg, t½, mouse Plasma, Compound P3 dosed PO 10 mg/kg): 2.2 h; IC50 [4]: 4.05 µM; Emax ([4]; read-out: Efficacy CPE assay): 40.7%; half-life [5]: > 0.5 h; Papp [6]: 500 ×10⁻⁶ cm/s
